≈ marks a conversion by molar mass, not a printed value.

Data on 18 compounds can be found in ChEMBL document CHEMBL1764984 (J Med Chem, 2011).

The target of data set [1] is T1, Mitogen-activated protein kinase 14 (Homo sapiens, UniProt Q16539). In words: Inhibition of human recombinant p38alpha assessed as incorporation of 33P from gamma-[33P]ATP into myelin basic protein after 30 mins by scintillation counting.
Another data set relates to Blood. In words: Inhibition of TNFalpha-induced IL1-beta production in human whole blood after 2 to 5 hrs by ELISA. Type of data set: functional, tissue-based. On the technique in general: An ELISA detects its analyte on a solid surface through an enzyme-linked reagent.
The next data set relates to Rattus norvegicus. Description: Inhibition of LPS-induced TNFalpha production in rat serum at 3 mg/kg, po administered 30 mins before LPS challenge measured after […] by ELISA. It counts as functional.
The nature of data set [2]: Permeability of the compound from apical to basolateral side of human Caco2 cells at 10 uM after 21 days. To be noted: Caco-2, read-out: permeability. Type of data set: ADME, cell-based.
The nature of data set [3]: Permeability of the compound from basolateral to apical side of human Caco2 cells at 10 uM after 21 days. It counts as ADME, cell-based. To be noted: Caco-2, read-out: permeability. On the technique in general: Passage across Caco-2 layers is used to estimate intestinal permeability.
The nature of data set [4]: Aqueous solubility of the compound in phosphate buffer at pH 6.5. It counts as physicochemical.
For data set [5], the target named is Tyrosine-protein kinase Lck (Homo sapiens, UniProt P06239). In words: Inhibition of LCK.
Data set [6] addresses T1, Mitogen-activated protein kinase 14. Description: Inhibition of p38alpha.

T1 sequence (Q16539 whole entry): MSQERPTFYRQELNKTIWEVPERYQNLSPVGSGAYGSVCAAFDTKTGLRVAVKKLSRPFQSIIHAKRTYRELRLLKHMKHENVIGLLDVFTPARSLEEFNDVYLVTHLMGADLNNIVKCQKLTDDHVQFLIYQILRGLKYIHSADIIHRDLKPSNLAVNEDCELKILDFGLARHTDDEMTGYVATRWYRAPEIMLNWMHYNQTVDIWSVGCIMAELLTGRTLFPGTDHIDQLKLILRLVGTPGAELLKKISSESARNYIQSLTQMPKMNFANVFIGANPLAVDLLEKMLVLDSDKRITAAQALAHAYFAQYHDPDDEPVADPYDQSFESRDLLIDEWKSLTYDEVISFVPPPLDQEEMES
Chain of Tyrosine-protein kinase Lck (P06239 whole entry): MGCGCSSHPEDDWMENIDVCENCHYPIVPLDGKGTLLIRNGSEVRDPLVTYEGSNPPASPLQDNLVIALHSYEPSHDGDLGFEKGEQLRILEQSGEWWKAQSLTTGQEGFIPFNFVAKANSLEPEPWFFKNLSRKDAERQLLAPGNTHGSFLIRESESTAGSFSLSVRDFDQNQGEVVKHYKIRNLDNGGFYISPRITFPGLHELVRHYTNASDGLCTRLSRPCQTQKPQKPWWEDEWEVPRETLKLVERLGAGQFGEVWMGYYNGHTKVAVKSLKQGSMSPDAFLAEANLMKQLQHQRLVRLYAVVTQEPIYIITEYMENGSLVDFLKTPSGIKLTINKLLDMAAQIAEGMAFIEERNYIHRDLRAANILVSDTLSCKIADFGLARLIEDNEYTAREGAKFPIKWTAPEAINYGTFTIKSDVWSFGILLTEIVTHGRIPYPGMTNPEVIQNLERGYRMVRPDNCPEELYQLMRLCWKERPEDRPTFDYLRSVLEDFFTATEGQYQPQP

Turning to `Cn1c(=O)c(Oc2ccc(F)cc2F)cc2cnc(NCCS(C)(=O)=O)nc21`, the figures for the IC50 (in data set [1]; with Blood) were 223 nM and 1490 nM, respectively.
On to `CC(=O)N1CCC(Nc2ncc3cc(Oc4ccc(F)cc4F)c(=O)n(C)c3n2)CC1`, for which the inhibition in vivo at 3 mg/kg in the data set with Rattus norvegicus stood at 76%. The IC50 in data set [1] amounted to 1 nM; with Blood, 30 nM. The Papp A→B at 10 µM in data set [2] came to 17.9 ×10⁻⁶ cm/s. Moreover, the Papp B→A at 10 µM in data set [3] worked out at 19.8 ×10⁻⁶ cm/s. Moreover, the solubility in data set [4] came to 14 µg/mL (≈ 32.6 µM).
On to `N#CCn1c(=O)c(Oc2ccc(F)cc2F)cc2cnc(NC3CCOCC3)nc21`, for which the IC50 in data set [1] was 2 nM; in the data set with Blood it was 28 nM.
In the case of `Cn1c(=O)c(Oc2ccc(F)cc2F)cc2cnc(NC(C)(C)CO)nc21`, in data set [1], the IC50 was 25 nM.
Regarding `O=c1c(Oc2ccc(F)cc2F)cc2cnc(NC3CCOCC3)nc2n1C[C@H](O)CO`, the IC50 in data set [1] was 7 nM; with Blood, 15 nM.
For `Cn1c(=O)c(-c2ccccc2Cl)cc2cnc(NC3CCOCC3)nc21`, in data set [5], the Kd was determined as 1800 nM. This compound also came in with an IC50 with Blood of 85.7 nM.
In the case of `CS(=O)(=O)N1CCC(n2c(=O)c(Oc3ccc(F)cc3F)cc3cnc(NC4CCOCC4)nc32)CC1`, the results for the IC50 (in data set [1]; in the data set on Blood) were 1 nM and 52 nM, respectively.
Turning to `C[C@@H](CS(C)(=O)=O)Nc1ncc2cc(Oc3ccc(F)cc3F)c(=O)n(C)c2n1`, the IC50 in the data set with Blood is more than 3000 nM.
`C[C@@H](Cn1ncnn1)Nc1ncc2cc(Oc3ccc(F)cc3F)c(=O)n(C)c2n1`: the inhibition in vivo at 3 mg/kg in the data set on Rattus norvegicus is 90%. Moreover, in data set [2], the Papp A→B at 10 µM came out at 30.1 ×10⁻⁶ cm/s. This compound returned a concentration for half-maximal inhibition (IC50) with Blood of 9 nM. Besides, the Papp B→A at 10 µM in data set [3] stood at 19.7 ×10⁻⁶ cm/s. In addition, in data set [4], the solubility amounted to 23 µg/mL (≈ 55.5 µM).
As to `O=c1c(Oc2ccc(F)cc2F)cc2cnc(NC3CCOCC3)nc2n1CCCO`, the midpoint of inhibition with Blood, the IC50, lay at 14 nM.
On to `Cn1c(=O)c(Oc2ccc(F)cc2F)cc2cnc(NC3CCS(=O)(=O)CC3)nc21`, for which the IC50 in data set [1] was found to be 15 nM; with Blood, 769 nM.
In the same order, the values of `Cn1c(=O)c(Oc2ccc(F)cc2F)cc2cnc(N[C@H]3CC[C@H](O)CC3)nc21` are 4 nM and 68 nM.
The matching figures for `CC(C)(O)Cn1c(=O)c(Oc2ccc(F)cc2F)cc2cnc(NC3CCOCC3)nc21`: 12 nM and 84 nM.
The matching figures for `Cn1c(=O)c(Oc2ccc(F)cc2F)cc2cnc(NC(CO)CO)nc21`: 158 nM and 189 nM.
Consider `Cn1c(=O)c(Oc2ccccc2)cc2cnc(NC3CCOCC3)nc21`, for which the IC50 in the data set on Blood amounted to 451 nM.
`O=C1Nc2nc(N[C@H]3CC[C@H](O)CC3)ncc2CN1c1ccccc1Cl`: the Kd is 32 nM in data set [6] and more than 20000 nM in data set [5].
Turning to `CS(=O)(=O)CCCn1c(=O)c(Oc2ccc(F)cc2F)cc2cnc(NC3CCOCC3)nc21`, the IC50 in data set [1] was 6 nM; in the data set with Blood it was 18 nM.
Consider `CC(C)Nc1ncc2cc(Oc3ccc(F)cc3F)c(=O)n(C)c2n1`, for which the IC50 in data set [1] came out at 4 nM; in the data set on Blood, 45 nM.

The IC50 is the concentration that inhibits the measured activity by half. Usually inhibition in vivo stands for how much of the control response was suppressed. Higher therefore signals a response far below the control. Broadly, the solubility is how much of the substance goes into solution per volume. A word on the Kd: it is the free concentration of one partner at which half of the binding sites on the other are occupied at equilibrium, for simple one-to-one binding.
